Patent publication US9392789B2, “Compositions of dibromomalonamide and their use as biocides” (Dow Global Technologies LLC, priority 2009, dated 2016)
Several values for one entry are separate records, joined by “and”; a condition that tells them apart may be missing. Equal entries are not always repeated.

Test system: mixture of Pseudomonas aeruginosa, Klebsiella pneumoniae, Staphylococcus aureus, and Bacillus subtilis
Assay: Growth inhibition assay (microtiter plate-based synergy assay)
Format: cell-based
Details: 24 h; for I90 value: single active, concentration for ~90% inhibition of growth
Excerpt: Growth Inhibition Assay. […] Regardless of the mechanism of action, the impact of a biocide (or combination of biocides) can be measured over time on the basis of an increase in the size of the community.
The assay measures the efficacy of one or more biocides at preventing growth of a consortium of bacteria in a dilute mineral salts medium. The medium contains (in mg/l) the following components: FeCl3.6H2O (1); CaCl2.2H2O (10); MgSO4.7H2O (22.5); (NH4)2SO4 (40); KH2PO4 (10); K2HPO4 (25.5); Yeast Extract (10); and glucose (100). After all components are added to deionized water, the pH of the medium is adjusted to 7.5. Following filter sterilization, aliquots are dispensed in 100 ul quantities to sterile microtiter plate wells. Dilutions of 2,2-dibromomalonamide (“DBMAL”) and/or “Biocide B” are then added to the microtiter plate. After preparing the combinations of actives as illustrated below, each well is inoculated with 100 μl of a cell suspension containing ca. 1×10^6 cells per milliliter of a mixture of Pseudomonas aeruginosa, Klebsiella pneumoniae, Staphylococcus aureus, and Bacillus subtilis. The final total volume of medium in each well is 300 μl. Once prepared as described herein, the concentration of each active ranges from 25 ppm to 0.195 ppm as illustrated in Table 1. The resulting matrix allows testing of eight concentrations of each active and 64 combinations of actives in the ratios (of actives).
Controls (not shown) contain the medium with no biocide added. After preparing the combinations of actives as illustrated above, each well is inoculated with 100 μl of a cell suspension containing ca. 1×10^6 cells per milliliter of a mixture of Pseudomonas aeruginosa, Klebsiella pneumoniae, Staphylococcus aureus, and Bacillus subtilis. The final total volume of medium in each well is 300 μl.
Immediately after the microtiter plates are prepared, the optical density (OD) readings for each well is measured at 580 nm and the plates are then incubated at 37° C. for 24 hr. After the incubation period, the plates are gently agitated before OD580 values are collected. The OD580 values at T0 are subtracted from T24 values to determine the total amount of growth (or lack thereof) that occurs. These values are used to calculate the percent inhibition of growth caused by the presence of each biocide and each of the 64 combinations. A 90% inhibition of growth is used as a threshold for calculating synergy index (SI) values with the following equation: Synergy Index=MDBMAL/CDBMAL+MB/CB
where • CDBMAL: Concentration of DBMAL required to inhibit ˜90% of bacterial growth when used alone • CB: Concentration of biocide (B) required to inhibit ˜90% of bacterial growth when used alone. • MDBMAL: Concentration of DBMAL required to inhibit ˜90% of bacterial growth when used in combination with biocide (B). • MB: Concentration of biocide (B) required to inhibit ˜90% of bacterial growth when used in combination with DBMAL The SI values are interpreted as follows: • SI<1: Synergistic combination • SI=1: Additive combination • SI>1: Antagonistic combination
In the Examples below, the amounts of biocides in the solution are measured in mg per liter of solution (mg/l). Since solution densities are approximately 1.00, the mg/l measurement corresponds to weight ppm. Both units may therefore be used interchangeably in the Examples.

SMILES	% Inhibition of growth (single active at 0.19 mg/l) [%]	% Inhibition of growth (single active at 0.39 mg/l)	% Inhibition of growth (single active at 0.78 mg/l) [%]	% Inhibition of growth (single active at 1.56 mg/l) [%]	% Inhibition of growth (single active at 3.13 mg/l) [%]	% Inhibition of growth (single active at 6.25 mg/l) [%]	% Inhibition of growth (single active at 12.5 mg/l)	% Inhibition of growth (single active at 25.0 mg/l) [%]	inhibition at 7.81 µg/mL (single active at 7.81 mg/l) [%]	inhibition at 15.63 µg/mL (single active at 15.63 mg/l) [%]	inhibition at 31.25 µg/mL (single active at 31.25 mg/l) [%]	inhibition at 62.5 µg/mL (single active at 62.5 mg/l) [%]	inhibition at 125 µg/mL (single active at 125 mg/l) [%]	inhibition at 250 µg/mL (single active at 250 mg/l) [%]	inhibition at 500 µg/mL (single active at 500 mg/l) [%]	inhibition at 1000 µg/mL (single active at 1,000 mg/l) [%]	inhibition at 12.5 µg/mL (single active at 12.5 mg/l) [%]	inhibition at 25 µg/mL (single active at 25.0 mg/l) [%]	I90 value [mg/L]
O=c1nc([O-])n(Cl)c(=O)n1Cl.[Na+] [DCI, dichloroisocyanurate]	0	0%	0	98	100	97	100%	100	–	–	–	–	–	–	–	–	–	–	–
OO [H2O2, hydrogen peroxide]	–	–	–	–	–	–	–	–	5	2	0	12	6	1	100	89	–	–	–
O=c1n(Cl)c(=O)n(Cl)c(=O)n1Cl [TCI, trichloroisocyanurate]	0	0%	0	97	96	99	97%	94	–	–	–	–	–	–	–	–	–	–	–
[O][Cl+][O-] [ClO2, chlorine dioxide]	12	26%	35	63	75	99	100%	98	–	–	–	–	–	–	–	–	–	–	–
NC(=O)C(Br)(Br)C(N)=O [DBMAL, 2,2-dibromomalonamide]	–	4% and 0% and 5% and 8% and 2%	–	–	–	9	99% and 92%	–	–	–	–	–	–	–	–	–	100	98	12.5
NCl [NH2Cl, monochloramine]	4	0%	2	97	96	94	97%	95	–	–	–	–	–	–	–	–	–	–	1.56
CC1(C)C(=O)N(Cl)C(=O)N1Br [BCDMH, bromochlorodimethylhydantoin]	0	0%	5	0	2	100	98%	99	–	–	–	–	–	–	–	–	–	–	–
OBr [HOBr, hypobromous acid]	0	0%	0	0	22	57	99%	100	–	–	–	–	–	–	–	–	–	–	–
